Source: patent US7884136B2, “Modified-release formulations of a bupropion salt” (Biovail Laboratories International S.R.L., priority 2005, dated 2011)

Experiments:
Assay type in all cases: physicochemical
[1] = Dynamic Vapour Sorption (DVS) hygroscopicity of bupropion HBr; conditions: for DVS: water uptake / hygroscopicity (words): range 0% RH-90% RH, hydrobromide
[2] = Solubility of Bupropion HBr vs Bupropion HCl in water, EtOH, IPA
[3] = Accelerated stability study of bupropion HBr, closed bottles, 40° C./75% RH, 3 and 6 months, HPLC; conditions: 40° C./75% RH
Procedure: The samples were prepared in closed bottles and placed in the stability chamber. HPLC analysis was conducted on the samples prior to placing them in the stability chamber (time 0), and after 3 months and 6 months. The amounts of the main degradation products present at time 0 were compared with those amounts present after 3 months and 6 months. […] For each sample tested, at each time period, two different HPLC assays were run. The first assay labelled chromatographic purity A, measured the percentage of three impurities 3′chloropropiophenone, 3′-Chloro-2-bromopropiophenone and 3′-Chlorobenzoic acid. The second assay, labelled chromatographic purity B, measured the percentage of 2-N-(tert-Butyl)-aminopropiophenone, a single unknown impurity and the total unknown impurities.

[4] = Shelf life stability program of bupropion HBr, 25° C./60% RH, 3 and 6 months, HPLC; conditions: 25° C./60% RH, 3 and 6 months
Procedure: The stability of bupropion HBr was studied over a longer term under conditions meant to approximate standard storage or shelf conditions. Samples were prepared in closed containers and subjected to long-term storage at 25° C.+2° C. and 60%+5% RH in a stability chamber. The samples were analyzed by HPLC prior to being placed in the stability chamber (time 0) and after 3 months and 6 months. The amounts of the main degradation products present at time 0 were compared with the amounts present at 3 months and 6 months. As shown in Table 77-79 three different batches of bupropion HBr were tested. As in Example 10 each sample was tested under two HPLC assay conditions to identify 6 impurities or groups of impurities as described in Example 10.

With `Br.CC(NC(C)(C)C)C(=O)c1cccc(Cl)c1` (centres unmarked) [Bupropion HBr, bupropion hydrobromide] the “DVS: maximum water uptake” value ([1]; at 90% RH) was 0.14 % weight, the “DVS: water uptake / hygroscopicity (words)” value ([1]; listed as HBr) was “non-hygroscopic” and the “DVS: water uptake / hygroscopicity (words)” value ([1]; listed as bupropion HBr) was “no significant water uptake”. For the same compound, the “Solubility, EtOH” value ([2]; EtOH) was 92 mg/mL, the “Solubility, IPA” value ([2]; IPA) was 12 mg/mL and the “Solubility, Water” value ([2]; water) was 143 mg/mL. For the same compound, the “Total percentage of impurities, change” value ([3]; 3-month and 6-month) was “did not change”, the “Impurity 3′-chloropropiophenone, trend” value ([3]; 3 and 6 months, three batches) was “slight increase” and the “Stability under the accelerated stability test conditions” value ([3]; 6 months) was “highly stable”. For the same compound, the “Other impurities, trend” value [4] was “did not show an increasing trend over time” and the “Impurity 3′-chloropropiophenone, trend” value ([4]; three batches) was “increased slightly over time”.
